Conditions: pH 8
Source text: Note that in the present invention, as an index of the “water solubility” in a “water-soluble drug” or a “water-soluble steroid”, a distribution coefficient (octanol/water distribution coefficient) can be employed. The distribution coefficient can be expressed by log D by taking into consideration of the influence of pH, and the water solubility is indicated by a minus value, while the liposolubility lipophilicity is indicated by a plus value.
The distribution coefficient can be obtained in accordance with the method described in JIS Z7260-107 or […].

dexamethasone metasulfobenzoate sodium
distribution coefficient (log D): −2

prednisolone sodium phosphate
distribution coefficient (log D): 0

From US20210060320A1, “TRANSDERMAL DRUG DELIVERY SYSTEM AND METHOD FOR USING SAME” (NICHIBAN CO., LTD., priority 2017, published 2021)
